Peptide text beside a SMILES is read from it. * marks the point of attachment. Cbz = O=C(OCc1ccccc1)*
Tests used:
[1] = tested on: GSK3β, active β-catenin and Snail; assay: Western blotting of GSK3β, active β-catenin, Snail and EMT proteins in HCT116 cells; format: cell-based, human
Description: FIGS. 4A to 4L. EpEX induces EMT and invasion by stabilizing β-catenin and Snail through decreasing GSK3β activity. (FIG. 4A) The protein expression of EMT markers and regulators was detected by Western blotting in Wild-type (WT) or EpCAM knockout (KO) HCT116 cells after EpEX treatment. (FIG. 4B) Cell invasion was examined by Transwell chamber assay with matrigel. (FIG. 4C) WT or KO HCT116 and HT29 cells were starved for 16 h, then treated with 0.5 nM of HGF with 2% FBS for 24 h. EMT-related protein expression (E-cadherin, vimentin, and Snail) was examined by Western blotting. (FIG. 4D) WT or KO HCT116 and HT29 cells were treated with HGF (0.5 nM) for 24 h. Invasion by HCT116 and HT29 cells was examined by Transwell chamber assay with matrigel. (FIG. 4E) HCT116 and HT29 cells were starved for 16 h, then treated with 0.5 nM of HGF with 2% FBS for 24 h. EMT-related protein expression (E-cadherin, Vimentin, and Snail) was examined by Western blotting. (FIG. 4F) HCT116 and HT29 cells were starved for 16 h, then treated with 0.5 nM of HGF with 2% FBS for 24 h. Cell invasion was assessed by a Transwell assay with matrigel. (FIG. 4G) HCT116 cells after shLuc and shHGFR treatment were treated with 50 nM of EpEX-His. HCT116 cells after shLuc and shHGFR treatment were treated with 50 nM of EpEX-His with 2% FBS for 24 h. EMT-related protein expression (E-cadherin, Vimentin, and Snail) was examined by Western blotting. (FIG. 4H) Cell invasion was examined by Transwell chamber assay with matrigel. (FIG. 4I) Starved HCT116 cells were treated SU (10 μM) for 1 h, followed by treatment with EpEX-His (50 nM) for 24 h. Phosphorylated GSK3β, active-β-catenin, and Snail were detected by Western blotting. (FIG. 4J) HCT116 cells were starved for 16 h, then treated with 50 nM EpEX-His for 24 min. AKT inhibitor LY294002 (25 μM), ERK inhibitor U0126 (20 μM), or PF-562271 (10 μM) were applied 1 h before EpEX treatment. Protein expression of phosphorylated GSK3β and Snail was examined by Western blotting. (FIG. 4K) HCT116 cells were starved for 16 h, then treated with 50 nM EpEX, and SU (10 μM), LY (25 μM), UO (20 μM) or PF (10 μM). Cell invasion was examined by Transwell chamber assay with matrigel. (FIG. 4L) Protein expression was analyzed by Western blotting in EpEX-His (50 nM) treated HCT116 cells after treatment with or without 2 μM GSK3β inhibitor (BIO) for 24 h. Quantification of the normalized protein expression in the right panel.
FIGS. 5A to 5I. EpEX promotes Snail protein stability through inhibition of ubiquitination-mediated proteasomal degradation. (FIG. 5A) The gene expression of EMT markers and regulators was detected by qRT-PCR in Wild-type (WT) or EpCAM knockout (KO) of HCT116 and HT29 cells. (FIG. 5B) Stability of Snail protein in WT or KO of HCT116 cells. Cells were treated with cyclohexamide (CHX) 100 μg/ml at the indicated intervals and subjected to Western blotting. (FIG. 5C) The protein expression of Snail was analyzed in WT or KO HCT116 cells by treating with or without […] MG132 (proteasome inhibitor) for 6 h, followed by Western blotting. (FIG. 5D) WT or KO HCT116 cells were treated with 10 μM MG132 for 6 h before cell collection. The lysates were subjected to immunoprecipitation using anti-Snail antibody and input. Western blotting was performed with the indicated antibodies to detect ubiquitinated Snail protein. (FIG. 5E) Stability of Snail protein in HCT116 cells after EpEX (50 nM) treatment for 24 h. Cells were treated with cyclohexamide (CHX; 100 μg/ml) for the indicated intervals and then subjected to Western blotting. (FIG. 5F) Expression of the gene encoding SNAIL was detected by qRT-PCR in HCT116 cells after EpEX (50 nM) treatment for 24 h. (FIG. 5G) The protein expression of Snail in HCT116 was analyzed cells by Western blotting after EpEX (50 nM) treatment for 24 h, and treatment with or without 10 μM MG132 (proteasome inhibitor) for 6 h. […]

[2] = tested on: GSK3β, active β-catenin and Snail; assay: as above; format: cell-based, human; remark: listed apart in the source

| SMILES | Snail steady-state protein levels ([1]; HCT116 with or without EpEX (50 nM, 24 h), 10 μM MG132 6 h, FIG. 5G) | Snail steady-state protein levels ([1]; WT or EpCAM KO HCT116, for 6 h, FIG. 5C) | Active β-catenin and Snail steady-state protein levels ([2]; 10 μM MG132 and EpAb2-6 for 6 h, FIG. 6I) | active β-catenin and Snail protein expressions ([1]; HCT116, control and EpEX-His (50 nM) treated, 2 μM BIO 24 h, FIG. 4L) | active β-catenin and Snail proteins ([2]; EpAb2-6 and 2 μM BIO 24 h, FIG. 6H) |
| --- | --- | --- | --- | --- | --- |
| CC(C)C[C@@H](C=O)NC(=O)[C@H](CC(C)C)NC(=O)[C@H](CC(C)C)NC(=O)OCc1ccccc1 [MG132] (Cbz-Leu-Leu-Leu-aldehyde) | increased Snail steady-state protein levels | increased Snail steady-state protein levels | increased active β-catenin and Snail steady-state protein levels |  |  |
| O=C1Nc2cc(Br)ccc2/C1=C1/Nc2ccccc2/C1=N\O [BIO] |  |  |  | upregulated both in control and EpEX-treated cells | increased |
